Results as given in patent US9012502B2, “Cancer heat therapy-enhancing agent” (SBI Pharmaceuticals Co., Ltd., priority 2010, dated 2015).

Legend:
HEK293 cells = experiment: Assay for intracellular reactive oxygen species (DCF-DA, flow cytometry); format: cell-based, human; conditions: for fluorescence peak value derived from DCF-DA: 42° C. (5-ALA-free cells 244); for level of intracellular reactive oxygen species, increase compared with 5-ALA-free cells: 42° C. for 24 hours, in the dark; for level of intracellular reactive oxygen species (in words): 0.5-2.0 mM 5-ALA
Text: To investigate what kind of effect 5-aminolevulinic acids according to the present invention could exert on a level of intracellular reactive oxygen species during thermotherapy, human embryonic kidney-derived HEK293 cells and a DCF-DA fluorescent reagent (2′,7′-dichlorodihydrofluorescein diacetate; H2DCFDA) were used to perform an assay for measuring a level of intracellular reactive oxygen species. Note that this assay uses characteristics as follows. Cell-permeable H2DCFDA remains a non-fluorescent substance until it is oxidized in the cytoplasm of a viable cell. Once it enters the viable cell, its diacetate group is cleaved by an intracellular esterase. Then, the resulting molecule is further oxidized by reactive oxygen species to emit fluorescence. The higher the measured fluorescence level, the higher the level of intracellular reactive oxygen species. This assay was performed using the following procedure.
First, HEK293 cells were cultured at 37° C. for 24 hours in 10% fetal bovine serum (FBS)-containing Dulbecco's Modified Eagle (DME) medium. The cells were split into 8 groups. Next, the medium was replaced by an FBS-free DME medium. Then, 5-aminolevulinic acid (5-ALA) was added to each group at a final concentration of 0.5 mM, 1.0 mM, or 2.0 mM, and cultured at 37° C. for 2 hours. After that, 10% FBS was added, and the resulting HEK293 cells were incubated at 37 or 42° C. for 24 hours. In addition, 5-ALA-free HEK293 cells were likewise incubated at 37 or 42° C. for 24 hours. All the above culture processes were conducted in the dark, so that an ultraviolet light, visible light, infrared light, or radiation, etc., was never used for irradiation.
Furthermore, to each group of the HEK293 cells was added a DCF-DA fluorescent reagent (manufactured by Sigma-Aldrich Corporation) at a final concentration of 20 μM. The resulting mixture was incubated for 30 minutes. Then, fluorescence (FL1: green fluorescence) derived from the DCF-DA was measured for each group by flow cytometry (FACSCalibur, manufactured by Becton, Dickinson and Company). […] More specifically, when 0.5 mM of 5-ALA was added at an incubation temperature of 42° C., the level of intracellular reactive oxygen species was increased by 1.23 times (300/244) compared with that of the 5-ALA-free cells. When 1.0 mM of 5-ALA was added, the level of intracellular reactive oxygen species was increased by 1.34 times (326/244). When 2.0 mM of 5-ALA was added, the level of intracellular reactive oxygen species was increased by 1.42 times (346/244).

[1] = system: colon cancer-derived cell line Caco-2; experiment: Hyperthermia sensitivity test using flow cytometry; format: cell-based; conditions: for fraction of dead cells (%), increase compared with 5-ALA-free cells: 42° C.
Description: (§1) To investigate what kind of effect the addition of 5-ALA could exert on hyperthermia sensitivity of cancer cells, a hyperthermia sensitivity test was performed using a flow cytometry technique as follows.
(§2) First, a human fibrosarcoma cell line HT-1080 and a colon cancer-derived cell line Caco-2 were prepared as cancer cell lines, and a human fibroblast line WI-38 and a murine fibroblast line NIH3T3 were prepared as normal cell lines. Also, prepared was a human embryonic kidney cell line HEK293 transformed so as to overgrow like cancer cells. These cells were cultured at 37° C. for 24 hours in 10% FBS-containing DME medium, and split into 8 groups. Next, the medium was replaced by an FBS-free DME medium. Then, 5-aminolevulinic acid (5-ALA) was added to each group at a final concentration of 0.5 mM, 1.0 mM, or 2.0 mM, and cultured at 37° C. for 2 hours. After that, 10% FBS was added, and the resulting cell groups were incubated […] for 24 hours. In addition, 5-ALA-free cell groups were likewise incubated at 37 or 42° C. for 24 hours. All the above culture processes were conducted in the dark, so that an ultraviolet light, visible light, infrared light, or radiation, etc., was never used for irradiation.
(§3) With regard to the fraction of dead cells, a total number of cells having apoptosis and necrosis was counted, and a ratio of the total number to the number of all cells was calculated. […] Of note is little enhancement of the cell death-inducing effect in normal cells.

[2] = system: human embryonic kidney cell line HEK293 transformed so as to overgrow like cancer cells; experiment: Hyperthermia sensitivity test using flow cytometry; format: cell-based; conditions: for fraction of dead cells (%), increase compared with 5-ALA-free cells: 42° C.
Description: as §1, §2, §3

[3] = system: murine fibroblast line NIH3T3; experiment: Hyperthermia sensitivity test using flow cytometry; format: cell-based; conditions: normal cells NIH3T3, 42° C.
Description: as §1, §2, §3

[4] = system: human fibrosarcoma cell line HT-1080; experiment: Hyperthermia sensitivity test using flow cytometry; format: cell-based; conditions: for fraction of dead cells (%), increase compared with 5-ALA-free cells: 42° C.
Description: as §1, §2, §3

[5] = system: human fibroblast line WI-38; experiment: Hyperthermia sensitivity test using flow cytometry; format: cell-based; conditions: normal cells WI-38, 42° C.
Description: as §1, §2, §3

[6] = system: transformed human embryonic kidney cell line HEK293; experiment: Measuring intracellular PpIX concentration by HPLC; format: cell-based; conditions: for intracellular PpIX concentration, increase compared with 5-ALA-free cells: 42° C. for 24 hours
Description: (§4) These two types of cells were cultured at 37 or 42° C. for 24 hours in a DME medium containing 10% FBS and 5-ALA at a concentration of 0, 0.5, 1, or 2 mM. Next, the cells were harvested using trypsin treatment. Then, the number of cells contained in a measurement sample was adjusted using a hemocytometer at 1×10^4. After that, the cells were lysed with NaOH, and treated with a DMF solution (i.e., a mixture of N,N-dimethylformamide:2-propanol=100:1). The resulting cell lysate was centrifuged at 13,000 rpm and 4° C. for 10 minutes to collect a supernatant. Subsequently, the supernatant was reacted at room temperature for 24 hours. Finally, the resulting supernatant was used as a measurement sample, and was subjected to a PpIX concentration measurement using HPLC.

normal cell line WI-38 = experiment: Measuring intracellular PpIX concentration by HPLC; format: cell-based, human; conditions: WI-38, regardless of the 5-ALA concentration added, 37 or 42° C.
Description: as §4

[7] = system: murine fibroblast-like cell line NIH3T3; experiment: Hyperthermia sensitivity test using trypan blue reagent; format: cell-based; conditions: normal cells NIH3T3, 42° C.
Text: (§5) A colon cancer-derived cell line Caco-2, a human hepatoma-derived cell line HepG2, a human gastric cancer-derived cell line KatoIII, and a human cervical cancer-derived cell line HeLa were used as cancer cell lines. A human embryonic kidney cell line HEK293 was used as cells transformed so as to overgrow like cancer cells. A human normal diploid fibroblast line WI-38, a murine fibroblast-like cell line NIH3T3, and a human embryonic lung-derived normal fibroblast MRCS were used as normal cells. Each of these cells was cultured at 37 or 42° C. for 24 hours in a DME medium containing 10% FBS and 5-ALA at a concentration of 0, 0.5, 1, or 2 mM, and treated with trypsin for cell harvest. Then, equal volumes of the harvested cell-containing solution and a trypan blue reagent were mixed, and the number of the cells was counted with a hemocytometer to calculate the fraction of dead cells (cells stained with trypan blue) (%; percent cell death).

[8] = system: human embryonic lung-derived normal fibroblast MRCS; experiment: as above; format: cell-based; conditions: 42° C.
Text: as §5

[9] = system: human hepatoma-derived cell line HepG2; experiment: as above; format: cell-based; conditions: for fraction of dead cells (%), increase compared with 5-ALA-free cells: 42° C.
Text: as §5

[10] = system: human gastric cancer-derived cell line KatoIII; experiment: as above; format: cell-based
Text: as §5

[11] = system: colon cancer-derived cell line Caco-2; experiment: as above; format: cell-based; conditions: for fraction of dead cells (%), increase compared with 5-ALA-free cells: 42° C.
Text: as §5

[12] = system: human embryonic kidney cell line HEK293; experiment: as above; format: cell-based; conditions: for fraction of dead cells (%), increase compared with 5-ALA-free cells: 42° C.
Text: as §5

[13] = system: human normal diploid fibroblast line WI-38; experiment: as above; format: cell-based; conditions: normal cells WI-38, 42° C.
Text: as §5

[14] = system: human cervical cancer-derived cell line HeLa; experiment: as above; format: cell-based
Text: as §5

[15] = 37° C., each concentration of 5-ALA

NCC(=O)CCC(=O)O [5-ALA, 5-aminolevulinic acid]
fluorescence peak value derived from DCF-DA (HEK293 cells; 0.5 mM 5-ALA): 300
level of intracellular reactive oxygen species, increase compared with 5-ALA-free cells (HEK293 cells; 0.5 mM 5-ALA): 1.23 times
fluorescence peak value derived from DCF-DA (HEK293 cells; 1.0 mM 5-ALA): 326
level of intracellular reactive oxygen species, increase compared with 5-ALA-free cells (HEK293 cells; 1.0 mM 5-ALA): 1.34 times
fluorescence peak value derived from DCF-DA (HEK293 cells; 2.0 mM 5-ALA): 346
level of intracellular reactive oxygen species, increase compared with 5-ALA-free cells (HEK293 cells; 2.0 mM 5-ALA): 1.42 times
level of intracellular reactive oxygen species (in words) (HEK293 cells; incubation temperature 37° C.): somewhat increased
level of intracellular reactive oxygen species (in words) (HEK293 cells; incubation temperature 42° C.): markedly increased
fraction of dead cells (%), increase compared with 5-ALA-free cells ([1]; Caco-2, 0.5 mM 5-ALA): about 2.1 times
fraction of dead cells (%), increase compared with 5-ALA-free cells ([1]; Caco-2, 1.0 mM 5-ALA): about 2.0 times
fraction of dead cells (%), increase compared with 5-ALA-free cells ([1]; Caco-2, 2.0 mM 5-ALA): about 1.9 times
fraction of dead cells (in words) ([1]; Caco-2, 37° C.): somewhat increased
fraction of dead cells (in words) ([1]; Caco-2, 42° C.): increase markedly
fraction of dead cells (%), increase compared with 5-ALA-free cells ([2]; HEK293, 0.5 mM 5-ALA): about 3.2 times
fraction of dead cells (%), increase compared with 5-ALA-free cells ([2]; HEK293, 1.0 mM 5-ALA): about 4.8 times
fraction of dead cells (%), increase compared with 5-ALA-free cells ([2]; HEK293, 2.0 mM 5-ALA): about 6.0 times
fraction of dead cells (in words) ([2]; HEK293, 37° C.): somewhat increased
fraction of dead cells (in words) ([2]; HEK293, 42° C.): increase markedly
5-ALA concentration-dependent cell death (in words) [3]: not enhanced
fraction of dead cells (%), increase compared with 5-ALA-free cells ([4]; HT-1080, 0.5 mM 5-ALA): about 1.7 times
fraction of dead cells (%), increase compared with 5-ALA-free cells ([4]; HT-1080, 1.0 mM 5-ALA): about 1.5 times
fraction of dead cells (%), increase compared with 5-ALA-free cells ([4]; HT-1080, 2.0 mM 5-ALA): about 2.3 times
fraction of dead cells (in words) ([4]; HT-1080, 37° C.): somewhat increased
fraction of dead cells (in words) ([4]; HT-1080, 42° C.): increase markedly
5-ALA concentration-dependent cell death (in words) [5]: not enhanced
intracellular PpIX concentration, increase compared with 5-ALA-free cells ([6]; HEK293, 0.5 mM 5-ALA): about 2.75 times
intracellular PpIX concentration, increase compared with 5-ALA-free cells ([6]; HEK293, 1.0 mM 5-ALA): about 6.3 times
intracellular PpIX concentration, increase compared with 5-ALA-free cells ([6]; HEK293, 2.0 mM 5-ALA): about 5.9 times
PpIX concentration in the HEK293 cell line (in words) ([6]; culture conditions at 42° C.): increased depending on the 5-ALA concentration
intracellular PpIX concentration (in words) (normal cell line WI-38): detection limit or less
increase in the fraction of dead cells depending on the 5-ALA concentration (in words) [7]: no increase
increase in the fraction of dead cells depending on the 5-ALA concentration (in words) [8]: no increase
fraction of dead cells (%), increase compared with 5-ALA-free cells ([9]; HepG2, 0.5 mM 5-ALA): about 1.1 times
fraction of dead cells (%), increase compared with 5-ALA-free cells ([9]; HepG2, 1.0 mM 5-ALA): about 1.35 times
fraction of dead cells (%), increase compared with 5-ALA-free cells ([9]; HepG2, 2.0 mM 5-ALA): about 1.5 times
fraction of dead cells (in words) ([9]; HepG2, 37° C., each concentration of 5-ALA): did not increase
fraction of dead cells (in words) ([9]; HepG2, 42° C.): markedly increased depending on the 5-ALA concentration
fraction of dead cells (%), increase compared with 5-ALA-free cells ([10]; 0.5 mM 5-ALA, 42° C.): about 1.8 times
fraction of dead cells (%), increase compared with 5-ALA-free cells ([10]; 1.0 mM 5-ALA, 42° C.): about 1.8 times
fraction of dead cells (%), increase compared with 5-ALA-free cells ([10]; 2.0 mM 5-ALA, 42° C.): about 1.8 times
fraction of dead cells (in words) [10, 15]: did not increase
fraction of dead cells (in words) ([10]; 42° C.): markedly increased depending on the 5-ALA concentration
fraction of dead cells (%), increase compared with 5-ALA-free cells ([11]; Caco-2, 0.5 mM 5-ALA): about 1.2 times
fraction of dead cells (%), increase compared with 5-ALA-free cells ([11]; Caco-2, 1.0 mM 5-ALA): about 1.7 times
fraction of dead cells (%), increase compared with 5-ALA-free cells ([11]; Caco-2, 2.0 mM 5-ALA): about 1.6 times
fraction of dead cells (in words) ([11]; Caco-2, 37° C., each concentration of 5-ALA): did not increase
fraction of dead cells (in words) ([11]; Caco-2, 42° C.): markedly increased depending on the 5-ALA concentration
fraction of dead cells (%), increase compared with 5-ALA-free cells ([12]; HEK293, 0.5 mM 5-ALA): about 1.6 times
fraction of dead cells (%), increase compared with 5-ALA-free cells ([12]; HEK293, 1.0 mM 5-ALA): about 2.0 times
fraction of dead cells (%), increase compared with 5-ALA-free cells ([12]; HEK293, 2.0 mM 5-ALA): about 3.5 times
fraction of dead cells (in words) ([12]; HEK293, 37° C., each concentration of 5-ALA): did not increase
fraction of dead cells (in words) ([12]; HEK293, 42° C.): markedly increased depending on the 5-ALA concentration
increase in the fraction of dead cells depending on the 5-ALA concentration (in words) [13]: no increase
fraction of dead cells (%), increase compared with 5-ALA-free cells ([14]; 0.5 mM 5-ALA, 42° C.): about 1.4 times
fraction of dead cells (%), increase compared with 5-ALA-free cells ([14]; 1.0 mM 5-ALA, 42° C.): about 1.5 times
fraction of dead cells (%), increase compared with 5-ALA-free cells ([14]; 2.0 mM 5-ALA, 42° C.): about 1.6 times
fraction of dead cells (in words) [14, 15]: did not increase
fraction of dead cells (in words) ([14]; 42° C.): markedly increased depending on the 5-ALA concentration
